Structures are written as SMILES.

human mGluR2, sequence (Q14416 19-872): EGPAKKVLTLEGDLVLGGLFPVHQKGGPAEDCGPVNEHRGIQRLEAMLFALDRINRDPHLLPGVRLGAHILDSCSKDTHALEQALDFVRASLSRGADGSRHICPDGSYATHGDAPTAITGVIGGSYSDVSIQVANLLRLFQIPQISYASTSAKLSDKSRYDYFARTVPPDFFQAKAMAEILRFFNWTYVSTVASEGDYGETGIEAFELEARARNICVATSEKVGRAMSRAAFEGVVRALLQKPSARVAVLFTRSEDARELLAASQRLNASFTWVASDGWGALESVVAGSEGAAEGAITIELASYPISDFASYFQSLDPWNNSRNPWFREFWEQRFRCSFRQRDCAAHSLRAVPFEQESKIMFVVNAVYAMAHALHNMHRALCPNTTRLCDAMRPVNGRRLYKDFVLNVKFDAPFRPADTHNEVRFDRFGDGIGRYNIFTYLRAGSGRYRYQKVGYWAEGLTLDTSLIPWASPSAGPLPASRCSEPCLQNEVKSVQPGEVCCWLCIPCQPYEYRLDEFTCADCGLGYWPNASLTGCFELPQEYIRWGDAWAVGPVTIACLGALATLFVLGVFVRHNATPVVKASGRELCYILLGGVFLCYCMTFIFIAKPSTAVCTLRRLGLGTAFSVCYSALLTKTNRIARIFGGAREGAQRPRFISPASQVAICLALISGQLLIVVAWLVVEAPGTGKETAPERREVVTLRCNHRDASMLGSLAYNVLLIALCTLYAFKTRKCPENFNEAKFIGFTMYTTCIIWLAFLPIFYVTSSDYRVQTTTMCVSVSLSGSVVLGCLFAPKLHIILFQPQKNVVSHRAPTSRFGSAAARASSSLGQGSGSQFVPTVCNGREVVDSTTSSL

One test addresses human mGluR2 (Homo sapiens (Human), UniProt Q14416). As to the kind of experiment: [35S]GTPγS binding assay (Affinity to mGluR2). Type of test: biochemical. The settings on record: cell membrane fraction of HEK293 cells stably expressing human mGluR2; glutamic acid 10 μM. The method, boiled down:
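Membranes from HEK293 cells stably co-expressing human mGluR2 and SLC1A3 (1.8–3 μg protein) preincubated with compound 30 min at RT, then stimulated with 10 μM glutamate 15 min; [35S]GTPγS (0.8 kBq) with WGA-SPA beads 1 h, buffer with 3 μM GDP, 100 mM NaCl, 1 mM MgCl2. IC50 from inhibition of glutamate-specific binding.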
Compound `COc1cc(-c2nc(-c3cc(C)nc(C(F)F)c3)c3n2C[C@@H](CF)OCC3)ccc1C(F)(F)F` [Example 31, (S)-1-(2-(difluoromethyl)-6-methylpyridin-4-yl)-6-(fluoromethyl)-3-(3-methoxy-4-(trifluoromethyl)phenyl)-5,6,8,9-tetrahydroimidazo[1,5-d][1,4]oxazepine] returned an IC50 of 0.0079 µM.

In the case of `Cc1cc(-c2nc(-c3ccc(Cl)c(OCC(F)(F)F)c3)n3c2CCOCC3)cc(C)n1` [Example 3, 3-(4-chloro-3-(2,2,2-trifluoroethoxy)phenyl)-1-(2,6-dimethylpyridin-4-yl)-5,6,8,9-tetrahydroimidazo[1,5-d][1,4]oxazepine], the IC50 came to 0.0139 µM.

Take `Cc1cc(-c2nc(-c3ccc(OC(F)F)c(F)c3)n3c2CCOCC3)ccn1` [Example 120]: the IC50 came to 0.0472 µM.

In the case of `COc1cc(-c2nc(-c3ccnc(C)c3)c3n2C[C@@H](CF)OCC3)ccc1C` [Example 72], the IC50 was 0.0294 µM.

The compound `Cc1cc(-c2nc(-c3ccc(OC(C)C)c(Cl)c3)n3c2CCO[C@H](CF)C3)cc(C)n1` [Example 38, (S)-3-(3-chloro-4-isopropoxyphenyl)-1-(2,6-dimethylpyridin-4-yl)-6-(fluoromethyl)-5,6,8,9-tetrahydroimidazo[1,5-d][1,4]oxazepine] had an IC50 of 0.0054 µM.

`COc1cc(-c2nc(-c3cc(C)nc(C)c3)c3n2CCOCC3)ccc1C` [Example 46] had an IC50 of 0.0656 µM.

Compound `CCOc1ccc(-c2nc(-c3cc(C)nc(C)c3)c3n2C[C@@H](C)OCC3)cc1Cl` [Example 34, (R)-3-(3-chloro-4-ethoxyphenyl)-1-(2,6-dimethylpyridin-4-yl)-6-methyl-5,6,8,9-tetrahydroimidazo[1,5-d][1,4]oxazepine] had an IC50 of 0.0028 µM.

Compound `COc1cc(-c2nc(-c3cc(C)nc(C)c3)c3n2C[C@@H](CF)OCC3)ccc1C(F)(F)F` [Example 29, (S)-1-(2,6-dimethylpyridin-4-yl)-6-(fluoromethyl)-3-(3-methoxy-4-(trifluoromethyl)phenyl)-5,6,8,9-tetrahydroimidazo[1,5-d][1,4]oxazepine] returned an IC50 of 0.0038 µM.

On to `CCCOc1cc(-c2nc(-c3cc(C)nc(C)c3)c3n2CCOCC3)ccc1F` [Example 96], for which the IC50 is 0.0598 µM. This IC50 lies about 16-fold higher than the previous one.

Compound `COc1cc(-c2nc(-c3cc(C)nc(C)c3)c3n2C[C@@H](C)OCC3)ccc1C` [Example 53] came in with an IC50 of 0.0213 µM. This IC50 is about 2.8-fold lower than that of the compound before.

On to `Cc1cc(-c2nc(-c3ccc(Cl)c(C)c3)n3c2CCO[C@H](C)C3)cc(CF)n1` [Example 88], for which the IC50 is 0.0167 µM.

Compound `COc1cc(-c2nc(-c3cc(C)nc(C)c3)c3n2C[C@@H](C(F)F)OCC3)ccc1Cl` [Example 79] yielded an IC50 of 0.0304 µM. This IC50 lies about 1.8-fold higher than the previous one.

Regarding `Cc1cc(-c2nc(-c3ccc(OC(F)(F)F)c(CF)c3)n3c2CCO[C@H](C)C3)ccn1` [Example 39, (R)-3-(3-(fluoromethyl)-4-(trifluoromethoxy)phenyl)-6-methyl-1-(2-methylpyridin-4-yl)-5,6,8,9-tetrahydroimidazo[1,5-d][1,4]oxazepine], the IC50 amounted to 0.0025 µM.

On to `Cc1cc(-c2nc(-c3ccc(Cl)c(F)c3)n3c2CCO[C@H](C)C3)ccn1` [Example 58], for which the IC50 worked out at 0.0418 µM.

`COc1cc(-c2nc(-c3cc(C)nc(CF)c3)c3n2C[C@@H](C)OCC3)ccc1C` [Example 90] showed an IC50 of 0.0127 µM. This IC50 is about 3.3-fold lower than that of the compound before.

The compound `COc1cc(-c2nc(-c3cc(C)nc(C)c3)c3n2C[C@@H](CF)OCC3)ccc1OC(F)(F)F` [Example 16, (S)-1-(2,6-dimethylpyridin-4-yl)-6-(fluoromethyl)-3-(3-methoxy-4-(trifluoromethoxy)phenyl)-5,6,8,9-tetrahydroimidazo[1,5-d][1,4]oxazepine] registered an IC50 of 0.0027 µM.

Regarding `COc1ccc(-c2nc(-c3cc(C)nc(C)c3)c3n2C[C@@H](CF)OCC3)cc1Cl` [Example 36, (S)-3-(3-chloro-4-methoxyphenyl)-1-(2,6-dimethylpyridin-4-yl)-6-(fluoromethyl)-5,6,8,9-tetrahydroimidazo[1,5-d][1,4]oxazepine], the IC50 came to 0.01 µM.

In the case of `COc1cc(-c2nc(-c3cc(C)nc(CF)c3)c3n2C[C@@H](C)OCC3)ccc1OC(F)(F)F` [Example 30, (R)-1-(2-(fluoromethyl)-6-methylpyridin-4-yl)-3-(3-methoxy-4-(trifluoromethoxy)phenyl)-6-methyl-5,6,8,9-tetrahydroimidazo[1,5-d][1,4]oxazepine], the IC50 was determined as 0.0052 µM. Compared with the last compound, the IC50 is about 1.9-fold lower.

Take `Cc1cc(-c2nc(-c3cccc(Cl)c3)n3c2CCO[C@H](C)C3)ccn1` [Example 63]: the IC50 was 0.0786 µM.

Compound `COc1ccc(-c2nc(-c3cc(C)nc(C)c3)c3n2C[C@@H](C)OCC3)cc1F` [Example 59] yielded an IC50 of 0.0963 µM.

On to `CCOc1cc(-c2nc(-c3cc(C)nc(C)c3)c3n2CCOCC3)ccc1Cl` [Example 102], for which the IC50 amounted to 0.0227 µM.

`Cc1cc(-c2nc(-c3ccc(OC(F)(F)F)cc3)n3c2CCO[C@H](CF)C3)cc(C)n1` [Example 69] came in with an IC50 of 0.0209 µM.

`COc1cc(-c2nc(-c3cc(C)nc(C(F)F)c3)c3n2C[C@@H](C)OCC3)ccc1C` [Example 80] yielded an IC50 of 0.0063 µM.

Regarding `Cc1cc(-c2nc(-c3ccc(Cl)c(F)c3)n3c2CCO[C@H](C)C3)cc(C)n1` [Example 56], the half-inhibitory concentration (IC50) amounted to 0.0219 µM. Against the preceding compound, the IC50 is about 3.5-fold higher.

Regarding `Cc1cc(-c2nc(-c3ccc(OCc4ccccc4)c(F)c3)n3c2CCOCC3)cc(C)n1` [Example 49], the IC50 stood at 0.0114 µM. Compared with the last compound, the IC50 is about 1.9-fold lower.

For the compound `Cc1cc(-c2nc(-c3ccc(OC(F)(F)F)c(C)c3)n3c2CCO[C@H](C)C3)cc(C)n1` [Example 67], the IC50 came out at 0.0047 µM.

As to `Cc1cc(-c2nc(-c3ccc(Cl)c(C(F)F)c3)n3c2CCOCC3)ccn1` [Example 126], the IC50 was 0.0084 µM.

`COc1cc(-c2nc(-c3cc(C)nc(C)c3)c3n2C[C@@H](CF)OCC3)ccc1C(F)F` [Example 28, (S)-3-(4-(difluoromethyl)-3-methoxyphenyl)-1-(2,6-dimethylpyridin-4-yl)-6-(fluoromethyl)-5,6,8,9-tetrahydroimidazo[1,5-d][1,4]oxazepine] came in with an IC50 of 0.0162 µM. This IC50 is about 1.9-fold higher than that of the compound before.

As to `COc1cc(-c2nc(-c3cc(C)nc(C)c3)c3n2CCOCC3)ccc1OC(F)F` [Example 127], the IC50 turned out to be 0.0121 µM.

Regarding `Cc1cc(-c2nc(-c3ccc(C(F)(F)F)c(F)c3)n3c2CCO[C@H](C)C3)ccn1` [Example 139], the IC50 worked out at 0.0475 µM.

The test is the same for the next values; noted with them: cell membrane fraction of HEK293 cells stably expressing human mGluR2; glutamic acid 10 μM; inhibition of specific [35S]GTPγS binding.
`COc1cc(-c2nc(-c3cc(C)nc(C(F)F)c3)c3n2C[C@@H](C)OCC3)ccc1OC(F)F` [Example 192] registered an IC50 of 0.005 µM. This counts as single-digit nanomolar.

`CCOc1cc(-c2nc(-c3cc(C)nc(C)c3)c3n2C[C@@H](C)OCC3)ccc1C` [Example 225] yielded an IC50 of 0.0039 µM.

In turn, `Cc1cc(-c2nc(-c3ccc(OCC(F)F)c(Cl)c3)n3c2CCOCC3)cc(C)n1` [Example 218] showed an IC50 of 0.0788 µM.

`CCOc1cc(-c2nc(-c3cc(C)nc(C)c3)c3n2C[C@@H](C)OCC3)ccc1CC` [Example 220] gave an IC50 of 0.0059 µM.

In turn, `Cc1cc(-c2nc(-c3ccc(OC(F)(F)F)c(CF)c3)n3c2CCOCC3)cc(C)n1` [Example 211] showed an IC50 of 0.0271 µM.

Take `Cc1cc(-c2nc(-c3ccc(C)c(OCC4CC4)c3)n3c2CCO[C@H](C)C3)cc(C)n1` [Example 226]: the IC50 came out at 0.0105 µM.

Consider `COc1cc(-c2nc(-c3ccnc(C)c3)c3n2C[C@@H](C)OCC3)ccc1C(C)(F)F` [Example 240], for which the IC50 turned out to be 0.0469 µM.

Take `Cc1cc(-c2nc(-c3ccc(F)c(C(F)(F)F)c3)n3c2CCO[C@H](CF)C3)cc(C)n1` [Example 173]: the IC50 was determined as 0.0192 µM.

Turning to `Cc1cc(-c2nc(-c3ccc(OC4CC4)c(Cl)c3)n3c2CCO[C@H](C)C3)cc(CF)n1` [Example 205], the IC50 came to 0.0053 µM.

Regarding `Cc1cc(-c2nc(-c3ccc(OC(F)(F)F)c(C)c3)n3c2CCOCC3)cc(CF)n1` [Example 198], the IC50 is 0.0132 µM.

Consider `Cc1cc(-c2nc(-c3ccc(C)c(OCC4CCOCC4)c3)n3c2CCO[C@H](C)C3)cc(C)n1` [Example 228], for which the IC50 is 0.082 µM.

Consider `Cc1cc(-c2nc(-c3ccc(OC(F)(F)F)c(F)c3)n3c2CCO[C@H](C)C3)cc(CO)n1` [Example 180], for which the IC50 was 0.101 µM.

Turning to `Cc1cc(-c2nc(-c3ccc(F)c(Cl)c3)n3c2CCO[C@H](C)C3)ccn1` [Example 145], the IC50 came out at 0.0455 µM.

`Cc1cc(-c2nc(-c3ccc(C)c(C(F)(F)F)c3)n3c2CCO[C@H](C)C3)cc(C)n1` [Example 183] showed an IC50 of 0.0074 µM.

Compound `COc1cc(-c2nc(-c3cc(C)nc(CO)c3)c3n2C[C@@H](CF)OCC3)ccc1C(F)(F)F` [Example 156] registered an IC50 of 0.0073 µM. This IC50 and that of the compound before are within 1.5-fold of each other.

On to `Cc1cc(-c2nc(-c3ccc(Cl)c(CF)c3)n3c2CCO[C@H](C)C3)cc(C)n1` [Example 238], for which the IC50 turned out to be 0.0368 µM. Against the preceding compound, the IC50 is about 5-fold higher.

For the compound `Cc1cc(-c2nc(-c3ccc(OC4CC4)c(Cl)c3)n3c2CCO[C@H](CF)C3)cc(C)n1` [Example 167], the IC50 was determined as 0.0018 µM.

Compound `Cc1cc(-c2nc(-c3ccc(OC4CC4)c(OC(F)(F)F)c3)n3c2CCOCC3)cc(C)n1` [Example 144] had an IC50 of 0.0277 µM.

As to `CCc1ccc(-c2nc(-c3ccnc(C)c3)c3n2C[C@@H](C)OCC3)cc1OCC1CC1` [Example 221], the IC50 was determined as 0.0267 µM.

As for `Cc1cc(-c2nc(-c3ccc(OC(F)(F)F)c(C)c3)n3c2CCO[C@H](C)C3)cc(CO)n1` [Example 179], the IC50 is 0.0179 µM.

In turn, `Cc1cc(-c2nc(-c3ccc(OC(F)(F)F)c(C)c3)n3c2CCO[C@H](C)C3)cc(CF)n1` [Example 204] displayed an IC50 of 0.004 µM.

In turn, `Cc1cc(-c2nc(-c3ccc(OCCF)c(Cl)c3)n3c2CCO[C@H](C)C3)cc(C)n1` [Example 239] registered an IC50 of 0.0119 µM.

In the case of `COc1cc(-c2nc(-c3ccnc(C)c3)c3n2C[C@@H](CF)OCC3)ccc1OC(F)F` [Example 164], the IC50 was determined as 0.0368 µM.

On to `Cc1cc(-c2nc(-c3ccc(OC(F)F)c(Cl)c3)n3c2CCOCC3)cc(C)n1` [Example 215], for which the IC50 turned out to be 0.0581 µM. This IC50 is about 1.6-fold higher than that of the compound before.

With `COc1cc(-c2nc(-c3cc(C)nc(CF)c3)c3n2C[C@@H](C)OCC3)ccc1C(F)(F)F` [Example 200], the IC50 was determined as 0.0044 µM. This IC50 is about 13-fold lower than that of the compound before.

Broadly, the IC50 is the concentration that inhibits the measured activity by half. A lower IC50 goes with greater potency in that assay.

For the origin of these results see patent US9458176B2, “Tetrahydroimidazo(1,5-D)[1,4]oxazepine derivative” (Eisai R&D Management Co., Ltd., priority 2013, dated 2016).
